Data set [1] deals with T1, human VPAC2 (Homo sapiens, UniProt P41587).
T1 construct: expressed in transfected cells
T1 sequence (P41587 24-438): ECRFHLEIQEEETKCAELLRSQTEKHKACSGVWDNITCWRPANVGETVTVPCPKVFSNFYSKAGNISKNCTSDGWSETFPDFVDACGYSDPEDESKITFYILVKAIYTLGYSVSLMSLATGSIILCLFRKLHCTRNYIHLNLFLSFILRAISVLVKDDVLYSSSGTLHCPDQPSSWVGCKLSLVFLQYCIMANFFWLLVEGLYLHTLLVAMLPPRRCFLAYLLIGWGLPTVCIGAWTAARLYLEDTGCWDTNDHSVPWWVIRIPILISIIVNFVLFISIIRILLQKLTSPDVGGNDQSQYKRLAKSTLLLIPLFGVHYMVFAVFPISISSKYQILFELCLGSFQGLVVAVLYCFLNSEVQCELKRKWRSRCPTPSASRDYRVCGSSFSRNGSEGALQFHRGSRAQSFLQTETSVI
Description: Filter binding assay, 125I-labeled VIP tracer, VPAC2 membranes. The following applies: read-out: Human VPAC2 Receptor Binding (IC50; nM).

In a further data set the target is T2, human PAC1 (Homo sapiens, UniProt P41586).
T2 construct: expressed in transfected cells
T2 sequence (P41586 21-468): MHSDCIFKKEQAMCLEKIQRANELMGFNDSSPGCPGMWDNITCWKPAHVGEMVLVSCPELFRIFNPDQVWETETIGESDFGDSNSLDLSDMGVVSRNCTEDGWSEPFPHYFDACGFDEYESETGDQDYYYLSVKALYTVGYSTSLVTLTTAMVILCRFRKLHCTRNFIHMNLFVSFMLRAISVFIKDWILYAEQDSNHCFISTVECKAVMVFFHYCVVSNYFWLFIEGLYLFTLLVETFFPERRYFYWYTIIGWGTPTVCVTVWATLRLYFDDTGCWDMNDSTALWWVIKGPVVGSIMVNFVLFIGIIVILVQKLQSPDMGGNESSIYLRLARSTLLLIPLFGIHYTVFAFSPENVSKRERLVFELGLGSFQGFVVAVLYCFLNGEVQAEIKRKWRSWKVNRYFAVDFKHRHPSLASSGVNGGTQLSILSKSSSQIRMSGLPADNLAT
Description: Filter binding assay, 125I-labeled PACAP-27 tracer, PAC1 membranes. The following applies: read-out: Human PAC1 Receptor Binding (IC50; nM).

The target of data set [2] is T1, human VPAC2. Description: Alpha screen cAMP assay, in vitro potency at human VPAC2 receptor. In kind it is cell-based. The following applies: cAMP generation; single result from two analyses in a single run, some values average of more than one experiment.
Description: Alpha screen: Cells are washed in the culture flask once with PBS. Then, the cells are rinsed with enzyme free dissociation buffer. The dissociated cells are removed. The cells are then spun down and washed in stimulation buffer. For each data point, 50,000 cells suspended in stimulation buffer are used. To this buffer, Alpha screen acceptor beads are added along with the stimuli. This mixture is incubated for 60 minutes. Lysis buffer and Alpha screen donor beads are added and are incubated for 60 to 120 minutes. The Alpha screen signal (indicative of intracellular cAMP levels) is read in a suitable instrument (e.g. AlphaQuest from Perkin-Elmer). Steps including Alpha screen donor and acceptor beads are performed in reduced light. The EC50 for cAMP generation is calculated from the raw signal or is based on absolute cAMP levels as determined by a standard curve performed on each plate.
Results for each agonist are, at minimum, from two analyses performed in a single run. For some agonists, the results are the mean of more than one run. The tested peptide concentrations are: 10000, 1000, 100, 10, 3, 1, 0.1, 0.01, 0.003, 0.001, 0.0001 and 0.00001 nM.
In another data set the target is T3, rat VPAC2 receptor (Rattus norvegicus, UniProt P35000).
T3 construct: expressed in transfected cells; host or cells: CHO-PO (transient, Lipofectamine)
T3 sequence (P35000 23-437): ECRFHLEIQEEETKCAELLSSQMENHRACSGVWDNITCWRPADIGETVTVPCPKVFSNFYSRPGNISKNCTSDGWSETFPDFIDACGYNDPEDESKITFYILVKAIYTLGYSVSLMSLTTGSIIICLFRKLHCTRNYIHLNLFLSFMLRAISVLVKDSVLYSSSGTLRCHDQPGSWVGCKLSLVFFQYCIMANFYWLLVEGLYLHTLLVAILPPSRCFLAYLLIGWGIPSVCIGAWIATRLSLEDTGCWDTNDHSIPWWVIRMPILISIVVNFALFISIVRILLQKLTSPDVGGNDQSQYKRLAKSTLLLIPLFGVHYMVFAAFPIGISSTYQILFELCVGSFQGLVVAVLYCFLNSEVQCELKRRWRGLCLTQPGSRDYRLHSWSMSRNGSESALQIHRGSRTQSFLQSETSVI
Description: DiscoveRx cAMP assay, in vitro potency at rat VPAC2 receptor. To be noted: CHO-PO cells transiently transfected with rat VPAC2; cAMP generation; mean of two independent runs. In kind it is cell-based. On the procedure: DiscoveRx: CHO-PO cells are transiently transfected with rat VPAC1 or VPAC2 receptor DNA using commercially available transfection reagents (Lipofectamine from Invitrogen). The cells are seeded at a density of 10,000/well in a 96-well plate and are allowed to grow for 3 days in […] culture medium. At day 3, the assay is performed.
On the day of the experiment, the medium is removed. Also, the cells are washed twice. The cells are incubated in assay buffer plus IBMX for 15 minutes at room temperature. Afterwards, the stimuli are added and are dissolved in assay buffer. The stimuli are present for 30 minutes. Then, the assay buffer is gently removed. The cell lysis reagent of the DiscoveRx cAMP kit is added. Thereafter, the standard protocol for developing the cAMP signal as described by the manufacturer is used (DiscoveRx Inc., USA). EC50 values for cAMP generation are calculated from the raw signal or are based on absolute cAMP levels as determined by a standard curve performed on each plate.
Results for each agonist are the mean of two independent runs. Rat VPAC1 and VPAC2 results are only generated using the DiscoveRx assay.

The target in another data set is T4, human VPAC1 (Homo sapiens, UniProt P32241).
T4 construct: expressed in transfected cells
T4 sequence (P32241 31-457): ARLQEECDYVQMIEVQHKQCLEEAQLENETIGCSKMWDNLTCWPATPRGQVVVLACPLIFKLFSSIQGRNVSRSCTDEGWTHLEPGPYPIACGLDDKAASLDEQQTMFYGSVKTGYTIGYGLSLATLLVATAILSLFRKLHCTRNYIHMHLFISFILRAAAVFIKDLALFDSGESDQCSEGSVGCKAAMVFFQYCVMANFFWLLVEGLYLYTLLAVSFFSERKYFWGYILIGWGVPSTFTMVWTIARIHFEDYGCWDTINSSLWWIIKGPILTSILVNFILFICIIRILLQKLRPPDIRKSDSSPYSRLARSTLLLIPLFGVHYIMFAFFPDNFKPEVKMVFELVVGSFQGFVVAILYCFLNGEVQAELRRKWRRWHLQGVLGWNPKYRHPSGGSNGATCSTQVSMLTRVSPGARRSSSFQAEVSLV
Description: Filter binding assay, 125I-labeled VIP tracer, VPAC1 membranes. The following applies: read-out: Human VPAC1 Receptor Binding (IC50; nM).

A short description of data set [3]: Rat serum stability (activity remaining, CHO-VPAC2 DiscoveRx read-out). Type of data set: in vitro ADME. The essentials: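 Peptides preincubated overnight in rat serum at 37 °C without aprotinin versus 4 °C with aprotinin, then tested as 11-point 5× dilutions in duplicate on CHO-VPAC2 cells, 30 min at RT. cAMP measured by DiscoveRx kit against standards; EC50 derived for each aliquot.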

As a reminder, the IC50 is the concentration that gives 50% inhibition. The EC50 is the concentration that produces a half-maximal response.

Square brackets hold non-standard residues; d marks the D form. Peptide text beside a SMILES is read from it. * marks the point of attachment. Orn = NCCC[C@H](N)C(=O)O; Hexanoyl = CCCCCC(=O)*; Aib = CC(C)(N)C(=O)O

Description for human PAC1: (§1) For this assay, the solutions and equipment include:
(§2) Presoak solution: 0.5% Polyethyleneamine in Aqua dest
(§3) Buffer for flushing filter plates: 25 mM HEPES pH 7.4
(§4) Blocking buffer: 25 mM HEPES pH 7.4; 0.2% protease free BSA
(§5) Assay buffer: 25 mM HEPES pH 7.4; 0.5% protease free BSA
(§6) Dilution and assay plate: PS-Microplate, U form
(§7) Filtration Plate: Multiscreen FB Opaque Plate; 1.0 μM Type B Glasfiber filter
(§8) In order to prepare the filter plates, the presoak solution is aspirated by vacuum filtration. The plates are flushed twice with 200 μL flush buffer. 200 μL blocking buffer is added to the filter plate. The filter plate is then incubated with 200 μL presoak solution for 1 hour at room temperature.
(§9) The assay plate is filled with 25 μL assay buffer, 25 μL membranes (2.5 μg) suspended in assay buffer, 25 μL compound (agonist) in assay buffer, and 25 μL tracer (about 40000 cpm) in assay buffer. The filled plate is incubated for 1 hour with shaking.
(§10) The transfer from assay plate to filter plate is conducted. The blocking buffer is aspirated by vacuum filtration and washed two times with flush buffer. 90 μL is transferred from the assay plate to the filter plate. The 90 μL transferred from assay plate is aspirated and washed three times with 200 μL flush buffer. The plastic support is removed. It is dried for 1 hour at 60° C. 30 μL Microscint is added. The count is performed.
Description for human VPAC1: as §1, §2, §3, §4, §5, §6, §7, §8, §9, §10

In the case of `CCCCCC(=O)N[C@@H](Cc1c[nH]cn1)C(=O)N[C@@H](CO)C(=O)N[C@@H](CC(=O)O)C(=O)N[C@@H](C)C(=O)N[C@H](C(=O)N[C@@H](Cc1ccccc1)C(=O)N[C@H](C(=O)N[C@@H](CC(=O)O)C(=O)N[C@@H](CC(N)=O)C(=O)N[C@@H](Cc1ccc(O)cc1)C(=O)N[C@H](C(=O)N[C@@H](CCCN)C(=O)N[C@@H](CC(C)C)C(=O)N[C@@H](CCCNC(=N)N)C(=O)NC(C)(C)C(=O)N[C@@H](CO)C(=O)N[C@H](C(=O)N[C@@H](C)C(=O)N[C@@H](C)C(=O)NC(C)(C)C(=O)N[C@@H](CCCCN)C(=O)N[C@@H](Cc1ccc(O)cc1)C(=O)N[C@@H](CC(C)C)C(=O)N[C@@H](CCC(N)=O)C(=O)N[C@@H](CO)C(=O)N[C@H](C(=O)N[C@@H](CCCN)C(=O)N[C@@H](CC(N)=O)C(=O)N[C@@H](CCCN)C(=O)NCC(=O)NCC(=O)N1CCC[C@H]1C(=O)N[C@@H](CO)C(=O)N[C@@H](CO)C(=O)NCC(=O)N[C@@H](C)C(=O)N1CCC[C@H]1C(=O)N1CCC[C@H]1C(=O)N1CCC[C@H]1C(=O)N[C@@H](CO)C(=O)O)[C@@H](C)CC)C(C)C)[C@@H](C)O)[C@@H](C)O)C(C)C` [Agonist P390] (Hexanoyl-HSDAVFTDNYT[Orn]LR[Aib]SVAA[Aib]KYLQSI[Orn]N[Orn]GGPSSGAPPPS-OH; C-terminus assumed), the figures for the half-maximal inhibitory concentration (IC50) at human VPAC2 [1] and at human PAC1 were 0.26 nM and more than 25000 nM, respectively. For the same compound, the concentration for a half-maximal effect (EC50) at human VPAC2 [2] worked out at 0.12 nM; on rat VPAC2 receptor, 0.09 nM.
Take `CCCCCC(=O)N[C@@H](Cc1c[nH]cn1)C(=O)N[C@@H](CO)C(=O)N[C@@H](CC(=O)O)C(=O)N[C@@H](C)C(=O)N[C@H](C(=O)N[C@@H](Cc1ccccc1)C(=O)N[C@H](C(=O)N[C@@H](CC(=O)O)C(=O)N[C@@H](CC(N)=O)C(=O)N[C@@H](Cc1ccc(O)cc1)C(=O)N[C@H](C(=O)N[C@@H](CC(C)C)C(=O)N[C@@H](CC(C)C)C(=O)N[C@@H](CCCNC(=N)N)C(=O)NC(C)(C)C(=O)N[C@@H](CCC(N)=O)C(=O)N[C@H](C(=O)N[C@@H](C)C(=O)N[C@@H](C)C(=O)NC(C)(C)C(=O)N[C@@H](CCCCN)C(=O)N[C@@H](Cc1ccc(O)cc1)C(=O)N[C@@H](CC(C)C)C(=O)N[C@@H](CCC(N)=O)C(=O)N[C@@H](CO)C(=O)N[C@H](C(=O)N[C@@H](CCCN)C(=O)N[C@@H](CC(N)=O)C(=O)N[C@@H](CCCN)C(=O)NCC(=O)NCC(=O)N1CCC[C@H]1C(=O)N[C@@H](CO)C(=O)N[C@@H](CO)C(=O)NCC(=O)N[C@@H](C)C(=O)N1CCC[C@H]1C(=O)N1CCC[C@H]1C(=O)N1CCC[C@H]1C(=O)N[C@@H](CO)C(=O)O)[C@@H](C)CC)C(C)C)[C@@H](C)O)[C@@H](C)O)C(C)C` [Agonist P367] (Hexanoyl-HSDAVFTDNYTLLR[Aib]QVAA[Aib]KYLQSI[Orn]N[Orn]GGPSSGAPPPS-OH; C-terminus assumed): the half-inhibitory concentration (IC50) on human VPAC2 [1] was more than 100 nM; on human VPAC1, more than 3000 nM; at human PAC1 it was more than 25000 nM. In addition, the “Rat Serum Stability (estimated purity in % after overnight incub.)” value in data set [3] was 55.82%.
As for `CCCCCC(=O)N[C@@H](Cc1c[nH]cn1)C(=O)N[C@@H](CO)C(=O)N[C@@H](CC(=O)O)C(=O)N[C@@H](C)C(=O)N[C@H](C(=O)N[C@@H](Cc1ccccc1)C(=O)N[C@H](C(=O)N[C@@H](CC(=O)O)C(=O)N[C@@H](CC(N)=O)C(=O)N[C@@H](Cc1ccc(O)cc1)C(=O)N[C@H](C(=O)N[C@@H](CCCNC(=N)N)C(=O)N[C@@H](CC(C)C)C(=O)N[C@@H](CC(C)C)C(=O)N[C@@H](C)C(=O)N[C@@H](CCCCN)C(=O)N[C@@H](CC(C)C)C(=O)N[C@@H](C)C(=O)N[C@@H](CC(C)C)C(=O)N[C@@H](CCC(N)=O)C(=O)N[C@@H](CCCCN)C(=O)N[C@@H](Cc1ccc(O)cc1)C(=O)N[C@@H](CC(C)C)C(=O)N[C@@H](CCC(N)=O)C(=O)N[C@@H](CO)C(=O)N[C@H](C(=O)N[C@@H](CCCN)C(=O)N[C@@H](CC(N)=O)C(=O)N[C@@H](CCCN)C(=O)NCC(=O)NCC(=O)N1CCC[C@H]1C(=O)N[C@@H](CO)C(=O)N[C@@H](CO)C(=O)NCC(=O)N[C@@H](C)C(=O)N1CCC[C@H]1C(=O)N1CCC[C@H]1C(=O)N1CCC[C@H]1C(=O)N[C@@H](CO)C(=O)O)[C@@H](C)CC)[C@@H](C)O)[C@@H](C)O)C(C)C` [Agonist P370] (Hexanoyl-HSDAVFTDNYTRLLAKLALQKYLQSI[Orn]N[Orn]GGPSSGAPPPS-OH; C-terminus assumed), the IC50 at human VPAC1 is more than 3000 nM; at human PAC1, more than 25000 nM. Further, in data set [3], the “Rat Serum Stability (estimated purity in % after overnight incub.)” value was 41.82%. In addition, the figures for the EC50 at human VPAC2 [2] and at rat VPAC2 receptor were 0.23 nM and 0.05 nM, respectively.
For `CCCCCC(=O)N[C@@H](Cc1c[nH]cn1)C(=O)N[C@@H](CO)C(=O)N[C@@H](CC(=O)O)C(=O)N[C@@H](C)C(=O)N[C@H](C(=O)N[C@@H](Cc1ccccc1)C(=O)N[C@H](C(=O)N[C@@H](CC(=O)O)C(=O)N[C@@H](CCC(N)=O)C(=O)N[C@@H](Cc1ccc(O)cc1)C(=O)N[C@H](C(=O)N[C@@H](CCCN)C(=O)N[C@@H](CC(C)C)C(=O)N[C@@H](CCCNC(=N)N)C(=O)NC(C)(C)C(=O)N[C@@H](CCC(N)=O)C(=O)N[C@H](C(=O)N[C@@H](C)C(=O)N[C@@H](C)C(=O)NC(C)(C)C(=O)N[C@@H](CCCCN)C(=O)N[C@@H](Cc1ccc(O)cc1)C(=O)N[C@@H](CC(C)C)C(=O)N[C@@H](CCC(N)=O)C(=O)N[C@@H](CO)C(=O)N[C@H](C(=O)N[C@@H](CCCN)C(=O)N[C@@H](CCC(N)=O)C(=O)N[C@@H](CCCN)C(=O)NCC(=O)NCC(=O)N1CCC[C@H]1C(=O)N[C@@H](CO)C(=O)N[C@@H](CO)C(=O)NCC(=O)N[C@@H](C)C(=O)N1CCC[C@H]1C(=O)N1CCC[C@H]1C(=O)N1CCC[C@H]1C(=O)N[C@@H](CO)C(=O)O)[C@@H](C)CC)C(C)C)[C@@H](C)O)[C@@H](C)O)C(C)C` [Agonist P363] (Hexanoyl-HSDAVFTDQYT[Orn]LR[Aib]QVAA[Aib]KYLQSI[Orn]Q[Orn]GGPSSGAPPPS-OH; C-terminus assumed) the same measures were more than 3000 nM, more than 25000 nM, 81.66%, 0.27 nM and 0.09 nM.

These data come from US20080194482A1, “Selective Apac2 Receptor Peptide Agonists” (priority 2005, published 2008).
